Results taken from US12077495B2 (priority 2018, dated 2024).

Columns and labels:
[1] = test system: permanent middle cerebral artery occlusion in C57BL/6J mice; assay: pMCAO model of focal ischemia, infarct volume; assay type: in vivo; conditions: 175 mg/kg 30 min after pMCAO; day 3; saline 16.6
Description: The pMCAO study was performed using age-matched, young adult (7-8 weeks), male C57BL/6J mice (Taconic). Mice were housed in separate cages under diurnal lighting and given free access to food (1314 Altromin) and water. Mice were acclimatized for seven days prior to surgery in accordance with guidelines approved by the Danish Animal Ethical Committee.
Focal cerebral ischemia was made by permanent occlusion of the distal part of the left middle cerebral artery (MCA). Mice were anesthetized by injection of a mixture of Hypnorm (fentanyl citrate 0.315 mg/ml and fluanisone 10 mg/ml; Jansen-Cilag), Stesolid (5 mg/ml Diazepamum; Dumex) and distilled water (1:1:2; 0.20 ml/10 g body weight, s.c.). The mouse was placed on a 37±0.5° C. warm heating pad and a skin incision was made from eye to ear. […]
For quantification of the infarcted area, animals were perfused with saline and then with 4% paraformaldehyde (PFA) and the brain dissected out and submerged in 4% PFA for post-fixing overnight. […] Sections were mounted, stained for cresyl violet and the infarct volumes determined by measuring every 6th section through the entire infarct as described in Lie et al (2017). […] The glass slides were stored at −80° C. until further processing, and then Cresyl-Violet stained and quantified as described for the photothrombotic photochemical method. […]

[2] = test system: photothrombotic focal ischemia in C57BL/6J mice; assay: Photothrombotic model, behavioural assessment (grid-walking and cylinder tasks); assay type: in vivo; conditions: for cylinder task, improvement vs saline / grid-walking task, reduction of asymmetry: 7 days after ischemia
Description: All procedures were performed in accordance with the guidelines on the care and use of laboratory animals set out by the University of Otago, Animal Research Committee and the Guide for Care and Use of Laboratory Animals (NIH Publication No. 85-23, 1996). All in vivo studies were approved by the University of Otago Animal Ethics Committee and are reported according to the ARRIVE (Animal Research: Reporting In Vivo Experiments) guidelines. The photochemical cortical lesion model resembles situations of acute brain injury related clinically to stroke and traumatic brain injury (TBI). Focal ischemia was induced by photothrombosis in male C57BL/6J mice (8-10 weeks) weighing ˜23-30 g as previously described (Clarkson et al., 2010). Under anesthesia with isoflurane (2% to 2.5% in O2) mice were placed in a stereotactic apparatus, the skull exposed through a midline incision, cleared of connective tissue and dried. A cold light source (KL1500 LCD, Zeiss, Auckland, New Zealand) attached to a 40× objective providing a 2-mm diameter illumination was positioned 1.5 mm lateral from bregma. Then, 0.2 ml of Rose Bengal (Sigma-Aldrich, Auckland, New Zealand; 10 mg/ml in normal saline) was administered i.p. After 5 min, the brain was illuminated through the exposed intact skull for 15 min, while keeping body temperature at 37.0±0.3° C. degrees using a heating pad (Harvard apparatus, Holliston, MA, USA). The skin was glued and animals left in a cage placed on a heating pad during the wake-up phase. Mice were housed under a 12-hr light/dark cycle with ad libitum access to food and water. Further, the mice were monitored and weighed on a daily basis.
For in vivo studies, all compounds were dissolved in a mixture of sterile saline and H2O to obtain isotonicity (0.9%) and administered as 10 mg/ml and 10 μl of solution per gram mouse body weight. The injection of compound (i.p.) was performed 30 min, 3, 6 or 12 hrs after induction of the photothrombotic stroke. The vehicle groups received a corresponding volume of saline (0.9%) at the same time points (30 min, 3, 6 or 12 hrs).
Forelimb motor performance was determined using the cylinder and grid-walking tasks as previously described (Clarkson et al., 2010). All animals were tested both in a pre- and post-testing session, 1 week before and 3 days or 7 days after the ischemic insult, respectively. Observers who scored the behaviour were blinded to the treatment groups.

[3] = 175 mg/kg 30 min after ischemia, day 3

O=C(O)C1=CC(O)CC1 (centres unmarked) [Compound A, 3-hydroxycyclopent-1-enecarboxylic acid]
infarct volume [1]: 12.3 mm^3 | cylinder task, reduction of asymmetry ([2]; 17.5 mg/kg 30 min after ischemia, day 3): 40% | grid-walking task, reduction vs saline ([2]; 17.5 mg/kg 30 min after ischemia, day 3, non-significant): 10% | cylinder task, reduction of asymmetry [2, 3]: 42% | grid-walking task, improvement vs saline [2, 3]: 26% | cylinder task, improvement vs saline ([2]; 175 mg/kg 3 hr after ischemia): 16% | grid-walking task, reduction of asymmetry ([2]; 175 mg/kg 3 hr after ischemia): 31% | cylinder task, improvement vs saline ([2]; 175 mg/kg 6 hr after ischemia): 20% | grid-walking task, reduction of asymmetry ([2]; 175 mg/kg 6 hr after ischemia): 22% | cylinder task, improvement vs saline ([2]; 175 mg/kg 12 hr after ischemia): non-significant | grid-walking task, reduction of asymmetry ([2]; 175 mg/kg 12 hr after ischemia): 21%
